In patent US20240336658A1, “CYCLIC PEPTIDE AND PREPARATION METHOD AND USE THEREOF” (HANGZHOU HUIBO SCIENCE AND TECHNOLOGY CO., LTD, priority 2021, published 2024):

Tested on: full-thickness skin defect wound surfaces
Experiment: Effect of Hst1-MAD cyclic peptide on wound repair in mice (Example 22): healing rate, histology, immunohistochemistry, immunofluorescence double staining, Western Blot
Assay type: in vivo, C57 BL/6 mice
Method: […]. 36 healthy male special pathogen-free grade C57 BL/6 mice (purchased from Guangdong Experimental Animal Center) of 6-8 weeks old and weighing 22-28 g. They were intraperitoneally injected with 5 ml/kg of 1% pentobarbital sodium for anesthesia. After the mice had no corneal reflex, the hair on their backs was carefully removed and disinfected with alcohol. […] full-thickness skin defect wound surfaces were prepared on the back of each mouse by using a circular skin punch. […]. Each wound surface was added with 0.5 ml of four drugs respectively, and administration was conducted every day until the wound surfaces of the experimental groups healed. Photographs were taken on days 0, 3, 5, and 10 after surgery, and wound tissues were sampled on days 3, 5, and 10 for subsequent pathological staining.
was observed and photographed with a digital camera (see FIG. 19), and the wound healing rate was calculated (see FIG. 20). Wound healing rate=(wound area immediately after injury−unhealed wound area at each time point)÷wound area immediately after injury×100%.
The wound specimens were fixed in 4% paraformaldehyde for 48 hours, rinsed with tap water for 10 minutes, dehydrated with graded ethanol, permeabilized with xylene, and embedded in paraffin to prepare 4 μm thick sections. Some sections were taken and subjected to HE staining to detect an epidermal thickness and subjected to Masson staining to detect newly grown collagen. Through hematoxylin-cosin staining (HE), the effects of the four groups of drugs on newly grown epidermal at the wound surface on day 10 were evaluated (FIGS. 21 and 22). Through Masson staining, the effects of the four groups of drugs on newly grown collagen at the wound surface on days 5 and 10 were evaluated (FIGS. 23 and 24). 5 sections were taken from each mouse, and 5 fields of view were selected for each section. Data analysis was performed using the software Image-pro Plus.
and rehydrated, subjected to antigen thermal repair with a 0.1 mol/L citric acid buffer (with a pH value of 6.0) for 20 minutes, treated with hydrogen peroxide with a volume fraction of 10% for inactivation of endogenous peroxidase for 10 minutes, and blocked with 50 g/L of bovine serum albumin for 2 hours. It was added with a rabbit anti-mouse CD31 primary antibody (with a dilution ratio of 1:300) and a mouse anti-VEGF (with a dilution ratio of 1:100), incubated overnight at 4° C., and washed with PBS. It was rewarmed for 1 hour, washed with PBS, added dropwise with ready-to-use biotinylated goat anti-mouse and goat anti-rabbit IgG secondary antibodies, incubated for 2 hours, and washed with PBS. It was subjected to DAB development, hematoxylin counterstaining. gradient ethanol dehydration, xylene permeabilization, and resin blocking. 5 sections were taken from each mouse, and 5 fields of view were selected for each section. The sections were observed under a 400× inverted fluorescence microscope, and analyzed for the number of CD31-positive blood vessels (see FIG. 25) and VEGF expression amounts (see FIG. 26) by using Image-pro Plus software.
The specific steps were: the previous steps were the same as those of 1.3.3, and they were incubated with the antibodies MHCII (orb101661; 1:500; Biorbyt Biotechnology Co., Ltd., Wuhan, CN), CD11c (97585; 1:200; Cell Signaling Technology Inc., Boston, MA), CD68 (GB11067; 1:300; Servicebio Inc.), CD80 (GB11034; 1:300; Servicebio Inc.), CD206 (GB11062; 1:500; Servicebio Inc.), claudin1 (37-4900; 1:100; Thermo Fisher Scientific Co., Ltd, Shanghai, CN) and claudin2 (32-5600; 1:200; Thermo Fisher Scientific Co., Ltd.) at 4° C. overnight. The fluorescent-labeled secondary antibodies were incubated at room temperature for 1 h, followed by 4′,6-diamidino-2′-phenylindole (DAPI) (G1012; Google Biotechnology Co., Ltd., Wuhan, CN). The stained sections were photographed by using a fluorescence microscope (Nikon Eclipse TI-SR. Tokyo, Japan). […]

[1] = day 3 after surgery, Western Blot, 10 μM Histatin1
[2] = day 10, immunofluorescence, 1 μM Click-Hst1-MAD, 1 μM Hst1-MAD, 10 μM Histatin1

Substance: Linear Hst1: linear peptide Hst1 (Histatin1), amino acid sequence SEQ ID NO.1
- number of M2 macrophages (CD68+ and CD206+) (day 3, 1 μM Click-Hst1-MAD, 10 μM Hst1, M±SD): 12.67±7.34
- expression level of HO-1 relative to the control group [1]: 1.80 times
- expression level of Nrf2 relative to the control group [1]: 1.27 times
- expression level of NQO1 relative to the control group (day 3 after surgery, Western Blot, 10 μM Hst1): 2.08 times
- number of dendritic cells (MHCII+ and CD11c+) relative to the control group (day 3 after surgery, 10 μM Hst1, 1 μM Click-Hst1-MAD): 1.75 times
- VEGF expression amount (day 5, 1 μM Click-Hst1-MAD, 10 μM Histatin1, 1 μM Hst1-MAD compared with each other): comparable
- expression levels of the dermal collagen (day 5, 1 μM Hst1-MAD and 10 μM Histatin1 compared with each other): equivalent
- Claudin1 expression intensity [2]: equivalent expression level of Claudin1
- Claudin2 expression intensity [2]: no obvious effect on promoting Claudin2 expression
- VEGF expression amount (day 10, 1 μM Click-Hst1-MAD, 10 μM Histatin1): higher
- number of dendritic cells (MHCII+ and CD11c+) (days 3 and 5 evaluated, 1 μM Click-Hst1-MAD, 1 μM Hst1-MAD, 10 μM Histatin1): significantly higher than that in the Control group
- number of M1 macrophages (CD68+ and CD80+) (days 3 and 5 evaluated, 1 μM Hst1-MAD, 10 μM Histatin1): lower than that in the Control group
- number of CD31-positive blood vessels (days 5 and 10, immunohistochemistry, 1 μM Click-Hst1-MAD, 1 μM Hst1-MAD, 10 μM Histatin1): significantly higher than that in the Control group
